As a reminder, the IC50 is the concentration that gives 50% inhibition.

Chain of C5aR (P21730 whole entry): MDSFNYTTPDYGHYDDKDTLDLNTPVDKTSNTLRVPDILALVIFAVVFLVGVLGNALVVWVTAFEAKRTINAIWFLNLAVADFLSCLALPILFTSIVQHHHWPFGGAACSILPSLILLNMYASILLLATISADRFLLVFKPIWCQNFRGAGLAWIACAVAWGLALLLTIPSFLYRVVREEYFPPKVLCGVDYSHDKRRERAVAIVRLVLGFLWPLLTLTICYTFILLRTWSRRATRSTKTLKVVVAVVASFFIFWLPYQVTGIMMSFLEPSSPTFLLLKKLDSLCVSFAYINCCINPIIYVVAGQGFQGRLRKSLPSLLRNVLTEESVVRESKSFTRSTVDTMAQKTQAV

The target in this experiment is C5aR (Homo sapiens (Human), UniProt P21730). The experiment can be described thus: Chemotaxis assay (inhibition of C5aR mediated migration towards C5a). Format: cell-based. The conditions noted are these: inhibition in the chemotaxis assay (Example 14 B.3); U937 or neutrophil cells, 0.03 nM C5a. The procedure:
U937 cells are a monocytic cell line which express C5aR, and are available from ATCC (VA). These cells were cultured as a suspension in RPMI-1640 medium supplemented with 2 mM L-glutamine, 1.5 g/L sodium bicarbonate, 4.5 g/L glucose, 10 mM HEPES, 1 mM sodium pyruvate, and 10% FBS. Cells were grown under 5% CO2/95% air, 100% humidity at 37° C. and subcultured twice weekly at 1:6 (cells were cultured at a density range of 1×10^5 to 2×10^6 cells/mL) and harvested at 1×10^6 cells/mL. Prior to assay, cells are treated overnight with 0.5 mM of cyclic AMP (Sigma, Ohio) and washed once prior to use. cAMP treated U937 cells can be used in C5aR ligand binding and functional assays.
Optionally, human or murine neutrophils can be used to assay for compound activity. Neutrophils may be isolated from fresh human blood using density separation and centrifigation. Briefly, whole blood is incubated with equal parts 3% dextran and allowed to separate for 45 minutes. After separation, the top layer is layered on top of 15 mls of Ficoll (15 mls of Ficoll for every 30 mls of blood suspension) and centrifuged for 30 minutes at 400×g with no brake. The pellet at the bottom of the tube is then isolated and resuspended into PharmLyse RBC Lysis Buffer (BD Biosciences, San Jose, Calif.) after which the sample is again centrifuged for 10 minutes at 400×g with brake. The remaining cell pellet is resuspended as appropriate and consists of isolated neutrophils.
Optionally, compounds may be further assayed for their ability to inhibit chemotaxis in cells. Chemotaxis assays are performed using 5 μm pore polycarbonate, polyvinylpyrrolidone-coated filters in 96-well chemotaxis chambers (Neuroprobe; Gaithersburg, Md.) using chemotaxis buffer (Hank's balanced salt solution (HBSS) and 1% FBS). C5aR ligands (i.e., C5a, R&D Systems; Minneapolis, Minn.) are use to evaluate compound mediated inhibition of C5aR mediated migration. Other chemokines (i.e., SDF-1α; R&D Systems; Minneapolis, Minn.) are used as specificity controls. The lower chamber is loaded with 29 μl of chemokine (i.e., 0.03 nM C5a) and varying amounts of compound; the top chamber contains 100,000 U937 or neutrophil cells in 20 μl. The chambers are incubated 1.5 hours at 37° C., and the number of cells in the lower chamber quantified either by direct cell counts in five high powered fields per well or by the CyQuant assay (Molecular Probes), a fluorescent dye method that measures nucleic acid content and microscopic observation.
The compound `CCc1cccc(CC)c1-n1nc2c(c1-c1ccc(F)c3[nH]ccc13)CN(Cc1cc(C(F)(F)F)cc(C(F)(F)F)c1)C2(C)C` [Compound 1.001] displayed an IC50 of 5 to 50 nM.

Consider `CCc1cccc(CC)c1-n1nc2c(c1-c1cc(F)c(OC)c3[nH]ccc13)CN(Cc1ccc(C(F)(F)F)cc1C(F)(F)F)C2(C)C` [Compound 1.002], for which the IC50 was less than 5 nM.

For `CCc1cccc(CC)c1-n1nc2c(c1-c1ccc(F)c3[nH]ccc13)CN(C(=O)NC(C)C)C2(C)C` [Compound 1.003], the half-inhibitory concentration (IC50) is not below 500 nM.

As to `CCc1cccc(CC)c1-n1nc2c(c1-c1ccc(CO)c3[nH]ccc13)CN(Cc1ccc(C(F)(F)F)cc1C(F)(F)F)C2(C)C` [Compound 1.004], the IC50 is less than 5 nM.

`CCc1cccc(CC)c1-n1nc2c(c1-c1ccc(C(=O)O)c3[nH]ccc13)CN(Cc1ccc(C(F)(F)F)cc1C(F)(F)F)C2(C)C` [Compound 1.005] displayed a half-inhibitory concentration (IC50) not below 500 nM.

With `CCc1cccc(CC)c1-n1nc2c(c1-c1ccc(F)c3[nH]ccc13)CN(C(=O)CN)C2(C)C` [Compound 1.006], the concentration for half-maximal inhibition (IC50) is not below 500 nM.

In turn, `CCc1cccc(CC)c1-n1nc2c(c1-c1ccc(F)c3[nH]ccc13)CN(C(=O)CNC(=O)OC(C)(C)C)C2(C)C` [Compound 1.007] showed an IC50 of 50 to 500 nM.

`CCc1cccc(CC)c1-n1nc2c(c1-c1ccc(F)c3[nH]ccc13)CN(Cc1ncco1)C2(C)C` [Compound 1.008] showed a half-maximal inhibitory concentration (IC50) of 50 to 500 nM.

In the case of `CCc1cccc(CC)c1-n1nc2c(c1-c1ccc(F)c3[nH]ccc13)CN(CC(C)(C)O)C2(C)C` [Compound 1.009], the half-maximal inhibitory concentration (IC50) was 50 to 500 nM.

Consider `CCc1cccc(CC)c1-n1nc2c(c1-c1cccc3[nH]cc(F)c13)CN(Cc1ccc(C(F)(F)F)cc1C(F)(F)F)C2(C)C` [Compound 1.010], for which the IC50 was in the range of 5 to 50 nM.

`CCc1cccc(CC)c1-n1nc2c(c1-c1ccc(F)c3[nH]cc(Cl)c13)CN(Cc1ccc(C(F)(F)F)cc1C(F)(F)F)C2(C)C` [Compound 1.011] displayed an IC50 of 5 to 50 nM.

Turning to `CCc1cccc(CC)c1-n1nc2c(c1-c1ccc(F)c3[nH]ccc13)CN(Cc1ccc(F)cc1Cl)C2(C)C` [Compound 1.012], the half-inhibitory concentration (IC50) was 5 to 50 nM.

`CCc1cccc(CC)c1-n1nc2c(c1-c1ccc(F)c3[nH]ccc13)CN(Cc1ccc(F)cc1F)C2(C)C` [Compound 1.013] had an IC50 of 5 to 50 nM.

For the compound `CCc1cccc(CC)c1-n1nc2c(c1-c1ccc(F)c3[nH]ccc13)CN(Cc1ccncc1)C2(C)C` [Compound 1.014], the concentration for half-maximal inhibition (IC50) fell in the range of 50 to 500 nM.

Regarding `CCc1cccc(CC)c1-n1nc2c(c1-c1ccc(F)c3[nH]cc(Cl)c13)CN(Cc1ccc(Cl)cc1F)C2(C)C` [Compound 1.015], the IC50 lay in the range of 5 to 50 nM.

Consider `CCc1cccc(CC)c1-n1nc2c(c1-c1ccc(F)c3[nH]ccc13)CN(Cc1cccnc1)C2(C)C` [Compound 1.016], for which the IC50 was 50 to 500 nM.

Turning to `CCc1cccc(CC)c1-n1nc2c(c1-c1ccc(F)c3[nH]cc(Cl)c13)CN(Cc1ccc(F)cc1F)C2(C)C` [Compound 1.017], the half-inhibitory concentration (IC50) was less than 5 nM.

On to `CCc1cccc(CC)c1-n1nc2c(c1-c1ccc(F)c3[nH]ccc13)CN(Cc1cccc(F)c1)C2(C)C` [Compound 1.018], for which the IC50 was in the range of 5 to 50 nM.

For `CCc1cccc(CC)c1-n1nc2c(c1-c1ccc(F)c3[nH]ccc13)CN(Cc1ccccn1)C2(C)C` [Compound 1.019], the IC50 was in the range of 5 to 50 nM.

Take `CCc1cccc(CC)c1-n1nc2c(c1-c1ccc(F)c3[nH]ccc13)CN(Cc1ccc(Cl)cc1Cl)C2(C)C` [Compound 1.020]: the 50% inhibitory concentration (IC50) lay within 5 to 50 nM.

For `CCc1cccc(CC)c1-n1nc2c(c1-c1ccc(F)c3[nH]ccc13)CN(Cc1ccccc1)C2(C)C` [Compound 1.021], the half-maximal inhibitory concentration (IC50) is less than 5 nM.

`CCc1cccc(CC)c1-n1nc2c(c1-c1ccc(F)c3[nH]ccc13)CN(Cc1ccccc1F)C2(C)C` [Compound 1.022] returned an IC50 of 5 to 50 nM.

The compound `CCc1cccc(CC)c1-n1nc2c(c1-c1ccc(F)c3[nH]ccc13)CN(Cc1ccc(F)cc1)C2(C)C` [Compound 1.023] came in with an IC50 of less than 5 nM.

`CCc1cccc(CC)c1-n1nc2c(c1-c1ccc(Cl)c3[nH]ccc13)CN(Cc1ccc(C(F)(F)F)cc1C(F)(F)F)C2(C)C` [Compound 1.024] displayed an IC50 of less than 5 nM.

Consider `CCc1cccc(CC)c1-n1nc2c(c1-c1ccc(C)c3[nH]ccc13)CN(Cc1ccc(C(F)(F)F)cc1C(F)(F)F)C2(C)C` [Compound 1.025], for which the IC50 is less than 5 nM.

For `CCc1cccc(CC)c1-n1nc2c(c1-c1ccc(F)c3[nH]cc(Cl)c13)CN(Cc1ccccc1C(F)(F)F)C2(C)C` [Compound 1.026], the IC50 was less than 5 nM.

`CCc1cccc(CC)c1-n1nc2c(c1-c1cc(F)c3[nH]ccc3c1)CN(Cc1ccc(C(F)(F)F)cc1C(F)(F)F)C2(C)C` [Compound 1.027] displayed an IC50 of 5 to 50 nM.

For `CCc1cccc(CC)c1-n1nc2c(c1-c1ccc(F)c3[nH]ccc13)CN(C(=O)c1ccccn1)C2(C)C` [Compound 1.028], the IC50 lay in the range of 50 to 500 nM.

In turn, `CCc1cccc(CC)c1-n1nc2c(c1-c1ccc(F)c3[nH]ccc13)CN(Cc1ccccc1C(F)(F)F)C2(C)C` [Compound 1.029] showed an IC50 of 5 to 50 nM.

In turn, `CCc1cccc(CC)c1-n1nc2c(c1-c1ccc(F)c3[nH]ccc13)CN(C(=O)CC(C)C)C2(C)C` [Compound 1.030] registered a half-inhibitory concentration (IC50) of 5 to 50 nM.

Consider `CCc1cccc(CC)c1-n1nc2c(c1-c1cc(F)cc3[nH]ccc13)CN(Cc1ccc(C(F)(F)F)cc1C(F)(F)F)C2(C)C` [Compound 1.031], for which the concentration for half-maximal inhibition (IC50) fell in the range of 5 to 50 nM.

The compound `CCc1cccc(CC)c1-n1nc2c(c1-c1ccc(F)c3[nH]ccc13)CN(CC(C)(C)C)C2(C)C` [Compound 1.032] displayed a 50% inhibitory concentration (IC50) of less than 5 nM.

`CCc1cccc(CC)c1-n1nc2c(c1-c1ccc(F)c3[nH]ccc13)CN(C(=O)C(C)(C)C)C2(C)C` [Compound 1.033] yielded a concentration for half-maximal inhibition (IC50) of 5 to 50 nM.

With `CCc1cccc(CC)c1-n1nc2c(c1-c1cccc3[nH]cc(Cl)c13)CN(Cc1ccc(C(F)(F)F)cc1C(F)(F)F)C2(C)C` [Compound 1.034], the IC50 was 5 to 50 nM.

`CCc1cccc(CC)c1-n1nc2c(c1-c1cccc3[nH]cc(C)c13)CN(Cc1ccc(C(F)(F)F)cc1C(F)(F)F)C2(C)C` [Compound 1.035] gave a half-maximal inhibitory concentration (IC50) of 5 to 50 nM.

In turn, `CCc1cccc(CC)c1-n1nc2c(c1-c1cccc3[nH]cc(C#N)c13)CN(Cc1ccc(C(F)(F)F)cc1C(F)(F)F)C2(C)C` [Compound 1.036] had an IC50 of 5 to 50 nM.

In the case of `CCc1cccc(CC)c1-n1nc2c(c1-c1c(F)cc(F)c3[nH]ccc13)CN(Cc1ccc(C(F)(F)F)cc1C(F)(F)F)C2(C)C` [Compound 1.037], the IC50 was less than 5 nM.

On to `CCc1cccc(CC)c1-n1nc2c(c1-c1cccc3[nH]ccc13)CN(Cc1cc(C(F)(F)F)ccc1C(F)(F)F)C2(C)C` [Compound 1.038], for which the IC50 lay within 5 to 50 nM.

`CCc1cccc(CC)c1-n1nc2c(c1-c1ccc(F)c3[nH]ccc13)CN(Cc1ccc(C(F)(F)F)cc1C(F)(F)F)C2(C)C` [Compound 1.039] displayed an IC50 of 5 to 50 nM.

On to `CCc1cccc(CC)c1-n1nc2c(c1-c1cccc3[nH]ccc13)CN(C(=O)Cn1nc(C(F)(F)F)cc1C)C2(C)C` [Compound 1.040], for which the half-maximal inhibitory concentration (IC50) was not below 500 nM.

On to `CCc1cccc(CC)c1-n1nc2c(c1-c1cccc3[nH]ccc13)CN(C(=O)COc1ccccc1)C2(C)C` [Compound 1.041], for which the IC50 lay in the range of 50 to 500 nM.

On to `CCc1cccc(CC)c1-n1nc2c(c1-c1cccc3[nH]ccc13)CN(Cc1cc(Cl)ccc1Cl)C2(C)C` [Compound 1.042], for which the IC50 was in the range of 5 to 50 nM.

`CCc1cccc(CC)c1-n1nc2c(c1-c1c(F)ccc3[nH]ccc13)CN(Cc1ccc(C(F)(F)F)cc1C(F)(F)F)C2(C)C` [Compound 1.043] returned a concentration for half-maximal inhibition (IC50) of 5 to 50 nM.

Regarding `CCc1cccc(CC)c1-n1nc2c(c1-c1cccc3[nH]ccc13)CN(Cc1ccccc1C(F)(F)F)C2(C)C` [Compound 1.044], the IC50 lay in the range of 5 to 50 nM.

Compound `CCc1cccc(CC)c1-n1nc2c(c1-c1cccc3[nH]ccc13)CN(Cc1ccc(C(F)(F)F)cc1C(F)(F)F)C2(C)C` [Compound 1.045] had a concentration for half-maximal inhibition (IC50) of 5 to 50 nM.

For the compound `CCc1cccc(CC)c1-n1nc2c(c1-c1ccc3[nH]ccc3c1)CN(Cc1cc(Cl)ccc1Cl)C2(C)C` [Compound 1.046], the IC50 fell in the range of 5 to 50 nM.

The compound `CCc1cccc(CC)c1-n1nc2c(c1-c1ccc3[nH]ccc3c1)CN(Cc1ccccc1C(F)(F)F)C2(C)C` [Compound 1.047] yielded a half-maximal inhibitory concentration (IC50) of 5 to 50 nM.

Regarding `CCc1cccc(CC)c1-n1nc2c(c1-c1ccc3[nH]ccc3c1)CN(C(=O)OC(C)(C)C)C2(C)C` [Compound 1.048], the concentration for half-maximal inhibition (IC50) was 5 to 50 nM.

`CCc1cccc(CC)c1-n1nc2c(c1-c1ccc3[nH]ccc3c1)CN(C(c1ccccc1)C(C)(C)O)C2(C)C` (stereo not shown) [Compound 1.049] displayed an IC50 of 50 to 500 nM.

Values taken from US10683294B2, “5-5 fused rings as C5a inhibitors” (CHEMOCENTRYX, INC., priority 2017, dated 2020).
